Source: patent US10913738B2 (BRISTOL-MYERS SQUIBB COMPANY, priority 2017, dated 2021)
Like-named read-outs stand apart in the source and are kept apart here.

Columns and labels:
[1] = tested on: MLKL phosphorylation in HT29-L23 human colorectal adenocarcinoma cells; test: MLKL Phosphorylation High-Content Assay; assay type: cell-based; conditions: Homo sapiens
Method in brief: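 IC50 and Ymax obtained by 4-parameter logistic fitting of MLKL phosphorylation, measured as mean circ-ring average intensity ratio from high-content images. Staining used an anti-phospho-S358 MLKL antibody overnight at 4° C., following six-hour cell incubation at 37° C.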

[2] = target: T1, His-GST-TVMV-hRIPK1(1-324) (Homo sapiens, UniProt Q13546); test: RIPK1 HTRF Binding Assay
T1 construct: The coding region of human RIPK1(1-324) flanked by NdeI site at 5′ end; made in house; host or cells: Spodoptera frugiperda (Sf9) insect cells, baculovirus
T1 sequence (Q13546 1-324): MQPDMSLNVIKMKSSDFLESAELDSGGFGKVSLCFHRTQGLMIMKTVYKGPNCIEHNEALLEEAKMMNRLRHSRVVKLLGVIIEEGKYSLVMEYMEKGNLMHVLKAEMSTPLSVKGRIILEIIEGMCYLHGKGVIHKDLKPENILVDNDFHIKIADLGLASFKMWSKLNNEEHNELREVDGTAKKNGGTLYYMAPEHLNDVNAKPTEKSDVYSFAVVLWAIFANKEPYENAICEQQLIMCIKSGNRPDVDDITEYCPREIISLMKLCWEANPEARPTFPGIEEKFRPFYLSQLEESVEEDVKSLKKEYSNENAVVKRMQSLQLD

[3] = x marks IC50 class <20 nM, read-out: pMLKL cell activity <20 nM
[4] = x marks IC50 class <20 nM, read-out: RIPK1 HTRF binding <20 nM
[5] = x marks IC50 class 20-200 nM, read-out: pMLKL cell activity 20-200 nM
[6] = x marks IC50 class 20-200 nM, read-out: RIPK1 HTRF binding 20-200 nM
[7] = x marks IC50 class >200 nM, read-out: pMLKL cell activity >200 nM

SMILES	IC50 [1, 3] [nM]	IC50 [2, 4] [nM]	IC50 [1, 5] [nM]	IC50 [2, 6] [nM]	IC50 [1, 7] [nM]
COc1nc(C)c(-c2ccn3nc(N)nc3c2)cc1C(=O)NCc1ccccc1OCC1CCCC1 [Example 207, 5-{2-amino-[1,2,4]triazolo[1,5-a]pyridin-7-yl}-N-{[2-(cyclopentylmethoxy)phenyl]methyl}-2-methoxy-6-methylpyridine-3-carboxamide]	< 20	< 20			
COc1nc(C)c(-c2ccn3nc(N)nc3c2)cc1C(=O)NCc1cc(F)cc(F)c1OCC1CCCC1 [Example 208, 5-{2-amino-[1,2,4]triazolo[1,5-a]pyridin-7-yl}-N-{[2-(cyclopentylmethoxy)-3,5-difluorophenyl]methyl}-2-methoxy-6-methylpyridine-3-carboxamide]		< 20	20 to 200		
COc1nc(C)c(-c2ccn3nc(N)nc3c2)cc1C(=O)NCc1cccnc1OCC1CCC1 [Example 209, 5-{2-amino-[1,2,4]triazolo[1,5-a]pyridin-7-yl}-N-{[2-(cyclobutylmethoxy)pyridin-3-yl]methyl}-2-methoxy-6-methylpyridine-3-carboxamide]		< 20	20 to 200		
COc1nc(C)c(-c2ccn3nc(N)nc3c2)cc1C(=O)NCc1cccc(OC(F)(F)F)c1 [Example 210, 5-{2-amino-[1,2,4]triazolo[1,5-a]pyridin-7-yl}-2-methoxy-6-methyl-N-{[3-(trifluoromethoxy)phenyl]methyl}pyridine-3-carboxamide]		< 20	20 to 200		
COc1nc(C)c(-c2ccn3nc(N)nc3c2)cc1C(=O)NCc1ccccc1OC(F)(F)F [Example 211, 5-{2-amino-[1,2,4]triazolo[1,5-a]pyridin-7-yl}-2-methoxy-6-methyl-N-{[2-(trifluoromethoxy)phenyl]methyl}pyridine-3-carboxamide]		< 20	20 to 200		
COc1nc(C)c(-c2ccn3nc(N)nc3c2)cc1C(=O)NCc1ccccc1OC(C)C [Example 212, 5-{2-amino-[1,2,4]triazolo[1,5-a]pyridin-7-yl}-2-methoxy-6-methyl-N-{[2-(propan-2-yloxy)phenyl]methyl}pyridine-3-carboxamide]	< 20	< 20			
COc1nc(C)c(-c2ccn3nc(N)nc3c2)cc1C(=O)NCc1ncccc1OC1CCCC1 [Example 213, 5-{2-amino-[1,2,4]triazolo[1,5-a]pyridin-7-yl}-N-{[3-(cyclopentyloxy)pyridin-2-yl]methyl}-2-methoxy-6-methylpyridine-3-carboxamide]	< 20	< 20			
COc1nc(C)c(-c2ccn3nc(N)nc3c2)cc1C(=O)NCc1c(F)cccc1OCC1CCC1 [Example 214, 5-{2-amino-[1,2,4]triazolo[1,5-a]pyridin-7-yl}-N-{[2-(cyclobutylmethoxy)-6-fluorophenyl]methyl}-2-methoxy-6-methylpyridine-3-carboxamide]	< 20	< 20			
COc1nc(C)c(-c2ccn3nc(N)nc3c2)cc1C(=O)NCc1c(F)cccc1OCC1CC1 [Example 215, 5-{2-amino-[1,2,4]triazolo[1,5-a]pyridin-7-yl}-N-{[2-(cyclopropylmethoxy)-6-fluorophenyl]methyl}-2-methoxy-6-methylpyridine-3-carboxamide]	< 20	< 20			
COc1nc(C)c(-c2ccn3nc(N)nc3c2)cc1C(=O)NCc1cc(F)ccc1OC1CCCC1 [Example 216, 5-{2-amino-[1,2,4]triazolo[1,5-a]pyridin-7-yl}-N-{[2-(cyclopentyloxy)-5-fluorophenyl]methyl}-2-methoxy-6-methylpyridine-3-carboxamide]	< 20	< 20			
COc1nc(C)c(-c2ccn3nc(N)nc3c2)cc1C(=O)NCc1c(F)cccc1OC1CCCC1 [Example 217, 5-{2-amino-[1,2,4]triazolo[1,5-a]pyridin-7-yl}-N-{[2-(cyclopentyloxy)-6-fluorophenyl]methyl}-2-methoxy-6-methylpyridine-3-carboxamide]		< 20	20 to 200		
COc1nc(C)c(-c2ccn3nc(N)nc3c2)cc1C(=O)NCCC(C)c1ccccc1 (centres unmarked) [Example 218, 5-{2-amino-[1,2,4]triazolo[1,5-a]pyridin-7-yl}-2-methoxy-6-methyl-N-(3-phenylbutyl)pyridine-3-carboxamide]	< 20	< 20			
COc1nc(C)c(-c2ccn3nc(N)nc3c2)cc1C(=O)NCc1ccccc1OC1CCCC1 [Example 219, 5-{2-amino-[1,2,4]triazolo[1,5-a]pyridin-7-yl}-N-{[2-(cyclopentyloxy)phenyl]methyl}-2-methoxy-6-methylpyridine-3-carboxamide]	< 20	< 20			
COc1nc(C)c(-c2ccn3nc(N)nc3c2)cc1C(=O)NCc1c(F)cccc1OCC1CCCC1 [Example 220, 5-{2-amino-[1,2,4]triazolo[1,5-a]pyridin-7-yl}-N-{[2-(cyclopentylmethoxy)-6-fluorophenyl]methyl}-2-methoxy-6-methylpyridine-3-carboxamide]		< 20	20 to 200		
COc1nc(C)c(-c2ccn3nc(N)nc3c2)cc1C(=O)NCc1ccccc1OCC1CC1 [Example 221, 5-{2-amino-[1,2,4]triazolo[1,5-a]pyridin-7-yl}-N-{[2-(cyclopropylmethoxy)phenyl]methyl}-2-methoxy-6-methylpyridine-3-carboxamide]	< 20	< 20			
[2H]C([2H])(NC(=O)c1cc(-c2ccn3nc(N)nc3c2)c(C)nc1OC)c1cc(OC(F)(F)F)ccc1F [Example 222, 5-{2-amino-[1,2,4]triazolo[1,5-a]pyridin-7-yl}-N-{[2-fluoro-5-(trifluoromethoxy)phenyl](deutero)methyl}-2-methoxy-6-methylpyridine-3-carboxamide]	< 20	< 20			
COc1nc(C)c(-c2ccn3nc(N)nc3c2)cc1C(=O)NC(C)c1cccc(OC(F)(F)F)c1 (centres unmarked) [Example 223, 5-{2-amino-[1,2,4]triazolo[1,5-a]pyridin-7-yl}-2-methoxy-6-methyl-N-{1-[3-(trifluoromethoxy)phenyl]ethyl}pyridine-3-carboxamide]		< 20	20 to 200		
Cc1ncc(-c2ccn3nc(N)nc3c2)cc1C(=O)NCC[C@@H](O)c1ccc(Cl)cc1 [Example 224]		< 20	20 to 200		
Cc1ncc(-c2ccn3nc(N)nc3c2)cc1C(=O)NCC[C@H](O)c1ccc(Cl)cc1 [Example 225]			20 to 200	20 to 200	
Cc1ncc(-c2ccn3nc(N)nc3c2)cc1C(=O)NCc1cc(C(F)(F)F)ccc1F [Example 226, 5-{2-amino-[1,2,4]triazolo[1,5-a]pyridin-7-yl}-N-{[2-fluoro-5-(trifluoromethyl)phenyl]methyl}-2-methylpyridine-3-carboxamide]			20 to 200	20 to 200	
Cc1ncc(-c2ccn3nc(N)nc3c2)cc1C(=O)NCCc1cccc(OC(F)(F)F)c1 [Example 227, 5-{2-amino-[1,2,4]triazolo[1,5-a]pyridin-7-yl}-2-methyl-N-{2-[3-(trifluoromethoxy)phenyl]ethyl}pyridine-3-carboxamide]				20 to 200	> 200
Cc1ncc(-c2ccn3nc(N)nc3c2)cc1C(=O)NCc1c(F)cc(F)cc1OCC1CCCC1 [Example 228]		< 20	20 to 200		
Cc1ncc(-c2ccn3nc(N)nc3c2)cc1C(=O)NCc1cc(OC(F)(F)F)ccc1F [Example 229, 5-{2-amino-[1,2,4]triazolo[1,5-a]pyridin-7-yl}-N-{[2-fluoro-5-(trifluoromethoxy)phenyl]methyl}-2-methylpyridine-3-carboxamide]		< 20	20 to 200		
Cc1ncc(-c2ccn3nc(N)nc3c2)cc1C(=O)NCc1ccccc1OCC1CCCCC1 [Example 230, 5-{2-amino-[1,2,4]triazolo[1,5-a]pyridin-7-yl}-N-{[2-(cyclohexylmethoxy)phenyl]methyl}-2-methylpyridine-3-carboxamide]		< 20	20 to 200		
Cc1ncc(-c2ccn3nc(N)nc3c2)cc1C(=O)NCc1cccnc1OCC1CCCC1 [Example 231, 5-{2-amino-[1,2,4]triazolo[1,5-a]pyridin-7-yl}-N-{[2-(cyclopentylmethoxy)pyridin-3-yl]methyl}-2-methylpyridine-3-carboxamide]				20 to 200	> 200
Cc1ncc(-c2ccn3nc(N)nc3c2)cc1C(=O)NCc1cc(F)cc(F)c1OCC1CCCC1 [Example 232]		< 20	20 to 200		
Cc1ncc(-c2ccn3nc(N)nc3c2)cc1C(=O)NCc1cccnc1OCC1CCC1 [Example 233, 5-{2-amino-[1,2,4]triazolo[1,5-a]pyridin-7-yl}-N-{[2-(cyclobutylmethoxy)pyridin-3-yl]methyl}-2-methylpyridine-3-carboxamide]		< 20			> 200
Cc1ncc(-c2ccn3nc(N)nc3c2)cc1C(=O)NC(C)c1cccc(OC(F)(F)F)c1 (centres unmarked) [Example 234, 5-{2-amino-[1,2,4]triazolo[1,5-a]pyridin-7-yl}-2-methyl-N-{1-[3-(trifluoromethoxy)phenyl]ethyl}pyridine-3-carboxamide]				20 to 200	> 200
